Results taken from patent US11071731B2, “Allosteric modulators of the mu opioid receptor” (Chiromics, LLC, priority 2017, dated 2021).
Where two headings read alike, the source gives them in different places.

Tests used:
[1] = molecular target: mu opioid receptor subtype OPRM1 (Homo sapiens, UniProt P35372); test: β-arrestin recruitment assay, antagonist format; format: cell-based; settings: Table 18
Procedure: Beta-Arrestin Pathway: The PathHunter β-arrestin assay monitors the activation of a GPCR in a homogenous, non-imaging assay format using a technology developed by DiscoveRx called Enzyme Fragment Complementation (EFC) with beta-galactosidase (β-Gal) as the functional reporter. […] EA is fused to β-Arrestin and ED is fused to the GPCR of interest. When the GPCR is activated and β-arrestin is recruited to the receptor, ED and EA complementation occurs, restoring β-gal activity, which is measured using chemiluminescent PathHunter Detection Reagents.
Similar results were obtained when agonist and antagonist activity were assayed using cAMP signaling as the readout.

mu opioid receptor (MOR) [2] = molecular target: T1, mu opioid receptor (MOR) (Homo sapiens, UniProt P35372); test: PathHunter β-arrestin recruitment assay, PAM mode with EC20 endomorphin-1; format: cell-based; settings: for allosteric activity for β-arrestin recruitment: EC20 endomorphin-1 concentration of 4.5 nM
Summary of the method: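 Enzyme fragment complementation read-out: β-gal ED fragment fused to receptor, EA fused to β-arrestin, recruitment restoring β-gal activity detected by chemiluminescence. EC50 and percent maximal response derived for each compound.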

mu opioid receptor (MOR) [3] = molecular target: T1, mu opioid receptor (MOR); test: Hit Hunter cAMP signaling assay (adenylyl cyclase inhibition), PAM mode with EC20 endomorphin-1; format: cell-based; settings: for allosteric activity for cAMP signaling: EC20 endomorphin-1 concentration of 0.45 nM; for Max. Response: cAMP
MOR [4] = molecular target: T2, MOR (Homo sapiens, UniProt P35372); test: cell-based; settings: EC20 morphine agonism of MOR; for EC50: RC50, cAMP; for Max. Response: cAMP
MOR [5] = molecular target: T2, MOR; test: cell-based; settings: EC20 morphine agonism of MOR; for EC50: RC50, β-arrestin; for Max. Response: β-arrestin
MOR [6] = molecular target: T2, MOR; test: cell-based; settings: EC20 Oxycodone agonism of MOR; for EC50: RC50, β-arrestin; for Max. Response: β-arrestin
MOR [7] = molecular target: T2, MOR; test: cell-based; settings: EC20 Oxycodone agonism of MOR; for EC50: RC50, cAMP; for Max. Response: cAMP
MOR [8] = molecular target: T2, MOR; format: cell-based; settings: β-arrestin; EC20 EM2 agonism of MOR
MOR [9] = molecular target: T2, MOR; format: cell-based; settings: cAMP; EC20 EM2 agonism of MOR
[10] = molecular target: T3, PK-tagged kappa opioid receptors (U20S-KOR1) (Homo sapiens, UniProt P41145); test: β-arrestin recruitment in U20S PathHunter cells, PAM mode with EC20 Dynorphin A; format: cell-based; settings: EC20 (0.8 nM) Dynorphin A; concentrations up to 25 μM
T3 construct: host or cells: U20S Path Hunter cells

[11] = molecular target: T4, PK-tagged delta opioid receptors (U20S-DOR1) (Homo sapiens, UniProt P41143); test: β-arrestin recruitment in U20S PathHunter cells, PAM mode with EC20 DADLE; format: cell-based; settings: EC20 (0.8 nM) DADLE; concentrations up to 25 μM
T4 construct: host or cells: U20S Path Hunter cells

Sprague-Dawley rats [12] = test: Gastrointestinal transit of charcoal bolus and stomach contents; settings: morphine 10 mg/kg, compound 9 15, 30, 60 mg/kg
Sprague-Dawley rats [13] = test: Respiratory depression: blood oxygen saturation by pulse oximetry; format: in vivo; settings: subcutaneous; morphine 10 mg/kg, compound 9 15, 30, 60 mg/kg; 90 minutes
Procedure: Respiratory depression is a significant side effect associated with opioid treatment of acute and chronic pain. Drug-related overdose deaths are often a function of the respiratory depression which occurs with opioid use. Efforts to generate analgesics that dissociate pain relief from side effects are critical to the advancement of public health. […] […].
Blood oxygen saturation was assessed in awake rats with the MouseOx oximeter system (Starr Life Sciences, Holliston, Mass.). Up to 5 samples were measured every 5 minutes for 15 minutes prior to dosing and 90 minutes after dosing. Each animal was habituated to the device over several days prior to the study.

[14] = maximal response for β-arrestin recruitment
[15] = β-arrestin recruitment, read-out: β-arr. EC50
[16] = adenylyl cyclase inhibition, read-out: cAMP EC50
[17] = maximal response for adenylyl cyclase inhibition
[18] = β-arrestin, EC20 EM-1 agonism of MOR
[19] = β-arrestin, EC20 EM-1 agonism of MOR, read-out: RC50 (the source's name)
[20] = RC50, cAMP, EC20 EM-1 agonism of MOR
[21] = cAMP EC50, adenylyl cyclase inhibition

T1 sequence (P35372 whole entry, the tested form may be a part): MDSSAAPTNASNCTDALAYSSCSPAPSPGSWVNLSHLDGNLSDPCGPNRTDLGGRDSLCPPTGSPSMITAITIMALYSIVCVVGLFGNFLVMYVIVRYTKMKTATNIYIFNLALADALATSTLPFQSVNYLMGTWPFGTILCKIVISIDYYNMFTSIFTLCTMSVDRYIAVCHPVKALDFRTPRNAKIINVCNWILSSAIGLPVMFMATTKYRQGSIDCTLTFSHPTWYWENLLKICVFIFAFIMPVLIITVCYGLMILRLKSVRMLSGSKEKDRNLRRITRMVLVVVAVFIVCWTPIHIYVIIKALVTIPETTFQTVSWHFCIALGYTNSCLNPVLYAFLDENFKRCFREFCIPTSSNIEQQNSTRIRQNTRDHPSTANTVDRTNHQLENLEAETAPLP
Chain of mu opioid receptor subtype OPRM1 (P35372 whole entry, the tested form may be a part): as above
T2 sequence (P35372 whole entry): as the sequence (P35372 whole entry, the tested form may be a part) above

Row | SMILES | IC50 [1] | allosteric activity for β-arrestin recruitment (mu opioid receptor (MOR) [2]) | β-arr Max. Resp. (mu opioid receptor (MOR) [2]; [14]) | EC50 (mu opioid receptor (MOR) [2]; [15]) | allosteric activity for cAMP signaling (mu opioid receptor (MOR) [3]) | EC50 (mu opioid receptor (MOR) [3]; [16]) | cAMP Max. Resp. (mu opioid receptor (MOR) [3]; [17]) | EC50 (MOR [4]) | Max. Response (MOR [4]) | EC50 (MOR [5]) | Max. Response (MOR [5]) | Max. Response (mu opioid receptor (MOR) [2]; [18]) | EC50 (mu opioid receptor (MOR) [2]; [19]) | EC50 (mu opioid receptor (MOR) [3]; [20]) | EC50 (mu opioid receptor (MOR) [3]; [21]) | Max. Response (mu opioid receptor (MOR) [3]; EC20 EM-1 agonism of MOR) | EC50 (MOR [6]) | Max. Response (MOR [6]) | EC50 (MOR [7]) | Max. Response (MOR [7]) | other results
1 | COc1ccc(C2CC(C(F)(F)F)CN2S(=O)(=O)c2ccc(Cl)cc2)cc1Br (single isomer, unassigned) [Compound 109] | > 25 µM | moderate positive allosteric effect | F (F represents a maximal response of > 60%) | > 2100 nM | moderate positive allosteric effect | < 700 nM | E (E represents a maximal response of 40-60%) |  |  |  |  |  |  |  |  |  |  |  |  |  | 
2 | Fc1cnc(Cl)nc1N1CCCCC1c1cccc(C(F)(F)F)n1 (stereo not drawn) [compound 123] |  |  | F (F represents a maximal response of > 60%) | 700 to 2100 nM |  |  | E (E represents a maximal response of 40-60%) | > 25000 nM | 0 | 14100 nM | 59 | 190 | 1020 nM | 590 nM | < 700 nM | 43 | > 25000 nM | 17 | > 25000 nM | 0 | 
3 | COc1ccc(C2C3CCC(C3)N2S(=O)(=O)c2ccc(Cl)cc2)cc1Br (stereo not drawn) [Compound 177] | > 25 µM | moderate positive allosteric effect | F (F represents a maximal response of > 60%) | > 2100 nM | moderate positive allosteric effect | > 2100 nM | E (E represents a maximal response of 40-60%) |  |  |  |  |  |  |  |  |  |  |  |  |  | 
4 | Fc1ccc(Cl)cc1CN1CCCCC1c1cccc(C(F)(F)F)n1 (stereo not drawn) [compound 2] |  | high positive allosteric activity | F (F represents a maximal response of > 60%) | < 700 nM | high positive allosteric activity |  | F (F represents a maximal response of > 60%) | > 25000 nM | 26 | 9590 nM | 156 | 143 | 360 nM | 570 nM | < 700 nM | 81 | 13600 nM | 126 | > 25000 nM | 5 | Max. Response (MOR [8]): 97; signaling preference β-arrestin vs cAMP (mu opioid receptor (MOR) [2]; comparison of β-arrestin and cAMP assays): roughly equivalent signaling for β-arrestin and cAMP; β-arr. Max Resp. (mu opioid receptor (MOR) [2]; maximal response for β-arrestin recruitment, Table 3): 72; EC50 (mu opioid receptor (MOR) [2]; β-arrestin recruitment, Table 3, read-out: β-arr. EC50): 155 nM; EC50 (mu opioid receptor (MOR) [3]; cAMP EC50 (nM), adenylyl cyclase inhibition, Table 3): 170 nM; cAMP Max Resp. (mu opioid receptor (MOR) [3]; maximal response for adenylyl cyclase inhibition, Table 3): 85; Max. Response (MOR [9]): 83
5 | O=S(=O)(c1ccc(Cl)cc1)N1CCCCC1c1ccc(F)c(Br)c1 (racemic) [compound 60] |  |  | F (F represents a maximal response of > 60%) | < 700 nM |  | < 700 nM | E (E represents a maximal response of 40-60%) |  |  |  |  |  |  |  |  |  |  |  |  |  | β-arrestin Max Response (mu opioid receptor (MOR) [2]; β-arrestin recruitment, activity switching by MOR PAMs): F (F represents a maximal response of >60%); EC50 (mu opioid receptor (MOR) [2]; β-arrestin recruitment, activity switching by MOR PAMs, read-out: β-arrestin EC50): > 2100 nM; cAMP Max Resp. (mu opioid receptor (MOR) [3]; adenylyl cyclase inhibition, activity switching by MOR PAMs): D (D represents a maximal response of < 40%); EC50 (mu opioid receptor (MOR) [3]; adenylyl cyclase inhibition, activity switching by MOR PAMs, read-out: cAMP EC50): > 2100 nM; positive allosteric effect on KOR signaling [10]: no significant positive allosteric effect; positive allosteric effect on DOR signaling [11]: no significant positive allosteric effect
6 | COc1ccc(C2N(S(=O)(=O)c3ccc(Cl)cc3)CCC2(F)F)cc1Br (single isomer, unassigned) [Compound 110] | > 25 µM | moderate positive allosteric effect | F (F represents a maximal response of > 60%) | > 2100 nM | moderate positive allosteric effect | > 2100 nM | F (F represents a maximal response of > 60%) |  |  |  |  |  |  |  |  |  |  |  |  |  | 
7 | COc1ccc(C2C(C(F)(F)F)CCN2S(=O)(=O)c2ccc(Cl)cc2)cc1Br (single isomer, unassigned) [Compound 108] | > 25 µM | moderate positive allosteric effect | F (F represents a maximal response of > 60%) | > 2100 nM | moderate positive allosteric effect | > 2100 nM | E (E represents a maximal response of 40-60%) |  |  |  |  |  |  |  |  |  |  |  |  |  | 
8 | Fc1cnc(Cl)nc1N1CCCCC1c1cccc(C(F)(F)F)c1 (single isomer, unassigned) [compound 8] |  |  | F (F represents a maximal response of > 60%) | < 700 nM |  |  | F (F represents a maximal response of > 60%) | 2000 nM | 44 | 7110 nM | 487 | 213 | 330 nM | 840 nM | 700 to 2100 nM | 76 | 12900 nM | 343 | 1910 nM | 56 | 
9 | CN1CC[C@]23c4c5ccc(O)c4O[C@H]2[C@@H](O)C=C[C@H]3[C@H]1C5 [morphine, reference compound] |  |  |  |  |  |  |  |  |  |  |  |  |  |  |  |  |  |  |  |  | stomach weight (Sprague-Dawley rats [12]; 20 minutes after charcoal): increased; GI transit (Sprague-Dawley rats [12]; subcutaneous 1 hour before charcoal): significantly decreased; oxygen saturation / respiratory depression (Sprague-Dawley rats [13]): significant reduction in oxygen saturation
10 | Fc1cnc(Cl)nc1N1CCCCCC1c1cccc(C(F)(F)F)n1 (stereo not drawn) [compound 253] |  |  | F (F represents a maximal response of > 60%) | > 2100 nM |  | > 2100 nM | E (E represents a maximal response of 40-60%) |  |  |  |  |  |  |  |  |  |  |  |  |  | 
